{"source": "PubChem BioAssay AID228", "about": "(DTP/NCI, 2004)", "system": "BDF1 mice, Friend leukemia sc, tumor weight T/C", "experiment": "NCI In Vivo Anticancer Drug Screen. Data for tumor model Friend Virus Leukemia (Solid) (subcutaneous) in B6D2F1 (BDF1) mice", "conditions": "endpoint: mean tumor weight, higher = larger tumour", "method": "The antitumor activity of compounds was measured in mice bearing transplantable tumors. Survival or tumor size were measured and the results are expressed as the measurement made in the treated group (T) divided by the measurement made in the vehicle treated control group (C). The tumor model used in this assay is Friend Virus Leukemia (Solid) (subcutaneous) in B6D2F1 (BDF1) mice", "key": {"[1]": {"conditions": "dose: 125.0 mg/kg/injection, schedule: Q01DX011 (ip), vehicle: carboxymethylcellulose (CMC)"}}, "note": "Values joined by “and” are separate entries in the source; they are usually repeats but may differ in a detail not shown here. Equal values may be shown once. Inconclusive results are not listed."}
{"smiles": "CC(=O)OCC(=O)[C@@]1(O)CC[C@H]2[C@@H]3CCC4=CC(=O)CC[C@]4(C)[C@H]3[C@@H](O)C[C@@]21C", "values": [{"measurement": "T/C", "setting": "dose: 2.25 mg/kg/injection, schedule: Q01DX011 (sc), vehicle: steriod suspending solution", "result": "267 % of control"}, {"measurement": "T/C", "setting": "dose: 8.5 mg/kg/injection, schedule: Q01DX011 (sc), vehicle: steriod suspending solution", "result": "73 % of control"}, {"measurement": "T/C", "setting": "dose: 9.0 mg/kg/injection, schedule: Q01DX011 (sc), vehicle: steriod suspending solution", "result": "88 % of control"}, {"measurement": "T/C", "setting": "dose: 17.0 mg/kg/injection, schedule: Q01DX011 (sc), vehicle: steriod suspending solution", "result": "105 % of control"}, {"measurement": "T/C", "setting": "dose: 30.0 mg/kg/injection, schedule: Q01DX011 (sc), vehicle: steriod suspending solution", "result": "44 % of control"}, {"measurement": "T/C", "setting": "dose: 60.0 mg/kg/injection, schedule: Q01DX011 (sc), vehicle: steriod suspending solution", "result": "32 % of control"}, {"measurement": "T/C", "setting": "dose: 68.0 mg/kg/injection, schedule: Q01DX011 (sc), vehicle: steriod suspending solution", "result": "60 % of control"}, {"measurement": "T/C", "setting": "dose: 90.0 mg/kg/injection, schedule: Q01DX011 (sc), vehicle: steriod suspending solution", "result": "29 % of control"}]}
{"smiles": "C[C@]12C=CC(=O)C=C1CC[C@@H]1[C@@H]2[C@@H](O)C[C@@]2(C)[C@H]1CC[C@]2(O)C(=O)COC(=O)C1CCCC1", "values": [{"measurement": "T/C", "setting": "dose: 0.12 mg/kg/injection, schedule: Q01DX011 (sc), vehicle: steriod suspending solution", "result": "103 % of control"}, {"measurement": "T/C", "setting": "dose: 0.25 mg/kg/injection, schedule: Q01DX011 (sc), vehicle: steriod suspending solution", "result": "102 % of control"}, {"measurement": "T/C", "setting": "dose: 0.5 mg/kg/injection, schedule: Q01DX011 (sc), vehicle: steriod suspending solution", "result": "95 % of control"}, {"measurement": "T/C", "setting": "dose: 3.0 mg/kg/injection, schedule: Q01DX011 (sc), vehicle: steriod suspending solution", "result": "46 % of control"}, {"measurement": "T/C", "setting": "dose: 6.0 mg/kg/injection, schedule: Q01DX011 (sc), vehicle: steriod suspending solution", "result": "47 % of control"}, {"measurement": "T/C", "setting": "dose: 6.3 mg/kg/injection, schedule: Q01DX011 (sc), vehicle: steriod suspending solution", "result": "38 % of control"}, {"measurement": "T/C", "setting": "dose: 12.0 mg/kg/injection, schedule: Q01DX011 (sc), vehicle: steriod suspending solution", "result": "33 % of control"}, {"measurement": "T/C", "setting": "dose: 12.5 mg/kg/injection, schedule: Q01DX011 (sc), vehicle: steriod suspending solution", "result": "25 % of control"}, {"measurement": "T/C", "setting": "dose: 25.0 mg/kg/injection, schedule: Q01DX011 (sc), vehicle: steriod suspending solution", "result": "10 % of control and 24 % of control"}, {"measurement": "T/C", "setting": "dose: 50.0 mg/kg/injection, schedule: Q01DX011 (sc), vehicle: steriod suspending solution", "result": "8 % of control and 14 % of control"}, {"measurement": "T/C", "setting": "dose: 100.0 mg/kg/injection, schedule: Q01DX011 (sc), vehicle: steriod suspending solution", "result": "7 % of control"}]}
{"smiles": "C=C(C)C(=O)OCC1CO1", "note": "(centres undefined)", "values": [{"measurement": "T/C", "setting": "dose: 50.0 mg/kg/injection, schedule: Q01DX011 (ip), vehicle: water", "result": "99 % of control"}, {"measurement": "T/C", "setting": "dose: 100.0 mg/kg/injection, schedule: Q01DX011 (ip), vehicle: water", "result": "110 % of control"}]}
{"smiles": "CCn1cnc2c(SC)nc(N)nc21", "values": [{"measurement": "T/C", "setting": "dose: 25.0 mg/kg/injection, schedule: Q01DX011 (ip), vehicle: carboxymethylcellulose (CMC)", "result": "83 % of control"}, {"measurement": "T/C", "setting": "dose: 50.0 mg/kg/injection, schedule: Q01DX011 (ip), vehicle: carboxymethylcellulose (CMC)", "result": "73 % of control"}, {"measurement": "T/C", "setting": "dose: 100.0 mg/kg/injection, schedule: Q01DX011 (ip), vehicle: carboxymethylcellulose (CMC)", "result": "23 % of control"}]}
{"smiles": "CC(Cl)CN(Cc1cc(O)c(CN(CC(C)Cl)CC(C)Cl)cc1O)CC(C)Cl", "note": "(centres undefined)", "values": [{"measurement": "T/C", "setting": "dose: 62.5 mg/kg/injection, schedule: Q01DX011 (ip), vehicle: carboxymethylcellulose (CMC)", "result": "66 % of control"}, {"measurement": "T/C", "setting": "[1]", "result": "44 % of control"}]}
{"smiles": "Cc1cc2nc3c(=O)[nH]c(=O)nc-3n(CCOC(=O)CCC(=O)O)c2cc1C", "values": [{"measurement": "T/C", "setting": "dose: 42.0 mg/kg/injection, schedule: Q01DX011 (ip), vehicle: carboxymethylcellulose (CMC)", "result": "96 % of control"}, {"measurement": "T/C", "setting": "dose: 84.0 mg/kg/injection, schedule: Q01DX011 (ip), vehicle: carboxymethylcellulose (CMC)", "result": "108 % of control"}, {"measurement": "T/C", "setting": "dose: 168.0 mg/kg/injection, schedule: Q01DX011 (ip), vehicle: carboxymethylcellulose (CMC)", "result": "83 % of control"}, {"measurement": "T/C", "setting": "dose: 236.0 mg/kg/injection, schedule: Q01DX011 (ip), vehicle: carboxymethylcellulose (CMC)", "result": "59 % of control"}]}
{"smiles": "C1OC1C1CO1", "note": "(centres undefined)", "values": [{"measurement": "T/C", "setting": "dose: 4.5 mg/kg/injection, schedule: Q01DX011 (ip), vehicle: carboxymethylcellulose (CMC)", "result": "77 % of control"}, {"measurement": "T/C", "setting": "dose: 9.0 mg/kg/injection, schedule: Q01DX011 (ip), vehicle: carboxymethylcellulose (CMC)", "result": "107 % of control and 115 % of control"}, {"measurement": "T/C", "setting": "dose: 18.0 mg/kg/injection, schedule: Q01DX011 (ip), vehicle: carboxymethylcellulose (CMC)", "result": "70 % of control and 83 % of control"}]}
{"smiles": "O=[N+]([O-])c1ccccc1CSc1ncnc2nc[nH]c12", "values": [{"measurement": "T/C", "setting": "dose: 15.0 mg/kg/injection, schedule: Q01DX011 (ip), vehicle: carboxymethylcellulose (CMC)", "result": "112 % of control"}, {"measurement": "T/C", "setting": "dose: 31.0 mg/kg/injection, schedule: Q01DX011 (ip), vehicle: carboxymethylcellulose (CMC)", "result": "111 % of control"}, {"measurement": "T/C", "setting": "dose: 62.0 mg/kg/injection, schedule: Q01DX011 (ip), vehicle: carboxymethylcellulose (CMC)", "result": "55 % of control and 48 % of control"}, {"measurement": "T/C", "setting": "[1]", "result": "26 % of control and 48 % of control"}, {"measurement": "T/C", "setting": "dose: 250.0 mg/kg/injection, schedule: Q01DX011 (ip), vehicle: carboxymethylcellulose (CMC)", "result": "7 % of control"}, {"measurement": "T/C", "setting": "dose: 500.0 mg/kg/injection, schedule: Q01DX011 (ip), vehicle: carboxymethylcellulose (CMC)", "result": "2 % of control"}]}
